Experimental data from patent US11492385B2, “Long-acting co-agonists of the glucagon and GLP-1 receptors” (Merck Sharp & Dohme Corp., priority 2015, dated 2022).
pEC50: −log10 of the molar value. Starred links: 1 amine or outer side, 2 acyl side, 3 side chain; linkers in the order of their positions; H or OH if unused. Non-standard residues stand in square brackets, D forms with d. Residues, ends and D or L forms follow the SMILES beside them. Groups on a side chain read outwards from the residue. *: point of attachment. C18 diacid = O=C(O)CCCCCCCCCCCCCCCCC(=O)*; γGlu = O=C(O)[C@H](CCC(=O)[*:2])N[*:1]; Met(O2) = CS(=O)(=O)CC[C@H](N)C(=O)O; αMeD = C[C@](N)(CC(=O)O)C(=O)O; AEEA = NCCOCCOCC(=O)O; Aib = CC(C)(N)C(=O)O

Columns and labels:
human GCGR = biological target: T1, human GCGR (Homo sapiens, UniProt P47871); assay: cAMP activity assay, cells expressing human GCGR; type: cell-based; settings: for pEC50: cAMP production, cells expressing human GCGR, assay buffer with or without 20% human serum (not stated which), read-out: GCGR EC50 human; for hGCGR/hGLP1R (hTone): ratio of human GCGR EC50 to human GLP1R EC50
T1 construct: expressed in transfected cells; kept under Blasticidin and Hygromycin selection
T1 sequence (P47871 26-477): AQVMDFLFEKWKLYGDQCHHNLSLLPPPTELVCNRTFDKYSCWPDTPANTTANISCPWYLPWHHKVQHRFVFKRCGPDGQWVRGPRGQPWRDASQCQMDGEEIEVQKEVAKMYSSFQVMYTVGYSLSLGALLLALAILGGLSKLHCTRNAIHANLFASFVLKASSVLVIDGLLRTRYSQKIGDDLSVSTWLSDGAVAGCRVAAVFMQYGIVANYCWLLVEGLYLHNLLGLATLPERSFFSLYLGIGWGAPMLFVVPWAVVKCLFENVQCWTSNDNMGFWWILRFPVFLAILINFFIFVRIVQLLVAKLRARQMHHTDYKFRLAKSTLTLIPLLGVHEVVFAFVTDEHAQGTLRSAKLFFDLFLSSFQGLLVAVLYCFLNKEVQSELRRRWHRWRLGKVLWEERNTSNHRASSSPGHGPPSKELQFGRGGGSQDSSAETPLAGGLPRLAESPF
Summary of the method: (§1)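 Peptides as 10-point titrations from DMSO tested on cells expressing human GLP1R or GCGR. cAMP measured by luminescent kit after overnight room-temperature incubation in the dark. EC50 from four-parameter logistic fit; native GLP-1 and glucagon as controls.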

human GLP1R = biological target: T2, human GLP1R (Homo sapiens, UniProt P43220); assay: cAMP activity assay, cells expressing human GLP1R; type: cell-based; settings: cAMP production, assay buffer with or without 20% human serum (not stated which)
T2 construct: expressed in transfected cells; kept under Blasticidin and Hygromycin selection
T2 sequence (P43220 24-463): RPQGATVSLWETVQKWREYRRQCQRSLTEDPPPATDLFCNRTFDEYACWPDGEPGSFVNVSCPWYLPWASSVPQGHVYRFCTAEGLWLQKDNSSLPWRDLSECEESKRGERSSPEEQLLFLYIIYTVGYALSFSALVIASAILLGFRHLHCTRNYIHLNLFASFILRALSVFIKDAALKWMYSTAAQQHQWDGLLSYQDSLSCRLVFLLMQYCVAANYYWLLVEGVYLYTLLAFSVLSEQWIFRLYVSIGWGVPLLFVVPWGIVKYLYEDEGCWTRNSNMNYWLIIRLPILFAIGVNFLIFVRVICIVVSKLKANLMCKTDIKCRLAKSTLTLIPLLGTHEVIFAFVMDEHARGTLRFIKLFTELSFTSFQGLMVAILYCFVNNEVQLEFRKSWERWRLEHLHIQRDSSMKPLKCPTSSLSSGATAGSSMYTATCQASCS
Summary of the method: as §1

Row | pEC50 (human GCGR) | hGCGR/hGLP1R (hTone) (human GCGR) | pEC50 (human GLP1R) | Compound
1 | 8.96 | 2.3 | 9.30 | CC(C)C[C@H](NC(=O)[C@H](Cc1ccc(O)cc1)NC(=O)[C@H](CCCCN)NC(=O)[C@H](CO)NC(=O)[C@H](Cc1ccc(O)cc1)NC(=O)[C@H](CC(=O)O)NC(=O)[C@H](CO)NC(=O)[C@@H](NC(=O)[C@H](Cc1ccccc1)NC(=O)[C@@H](NC(=O)CNC(=O)[C@H](CCC(N)=O)NC(=O)C(C)(C)NC(=O)[C@@H](N)Cc1c[nH]cn1)[C@@H](C)O)[C@@H](C)O)C(=O)N[C@@H](CC(=O)O)C(=O)N[C@@H](C)C(=O)N[C@@H](CCCCN)C(=O)N[C@@H](C)C(=O)N[C@@H](C)C(=O)N[C@@H](CCCCNC(=O)COCCOCCNC(=O)COCCOCCNC(=O)CC[C@H](NC(=O)CCCCCCCCCCCCCCCCC(=O)O)C(=O)O)C(=O)N[C@@H](CC(=O)O)C(=O)N[C@@H](Cc1ccccc1)C(=O)N[C@H](C(=O)N[C@@H](CCC(N)=O)C(=O)N[C@@H](Cc1c[nH]c2ccccc12)C(=O)N[C@@H](CC(C)C)C(=O)N[C@@H](CCS(C)(=O)=O)C(=O)N[C@@H](CC(=O)O)C(=O)N[C@H](C(N)=O)[C@@H](C)O)C(C)C [compound 70] (H-H[Aib]QGTFTSDYSKYLDAKAAK([AEEA-AEEA-γGlu-C18 diacid])DFVQWL[Met(O2)]DT-NH2; N-terminus assumed)
2 | 9.89 | 1 | 9.77 | CC(C)C[C@H](NC(=O)[C@H](Cc1ccc(O)cc1)NC(=O)[C@H](CCCCN)NC(=O)[C@H](CO)NC(=O)[C@H](Cc1ccc(O)cc1)NC(=O)[C@H](CC(=O)O)NC(=O)[C@H](CO)NC(=O)[C@@H](NC(=O)[C@H](Cc1ccccc1)NC(=O)[C@@H](NC(=O)CNC(=O)[C@H](CCC(N)=O)NC(=O)C(C)(C)NC(=O)[C@@H](N)Cc1c[nH]cn1)[C@@H](C)O)[C@@H](C)O)C(=O)N[C@@H](CC(=O)O)C(=O)N[C@@H](C)C(=O)N[C@@H](CCCNC(=N)N)C(=O)N[C@@H](C)C(=O)N[C@@H](C)C(=O)N[C@@H](CCC(N)=O)C(=O)N[C@@H](CCCCNC(=O)COCCOCCNC(=O)COCCOCCNC(=O)CC[C@H](NC(=O)CCCCCCCCCCCCCCCCC(=O)O)C(=O)O)C(=O)N[C@@H](Cc1ccccc1)C(=O)N[C@H](C(=O)N[C@@H](CCC(N)=O)C(=O)N[C@@H](Cc1c[nH]c2ccccc12)C(=O)N[C@@H](CC(C)C)C(=O)N[C@@H](CCS(C)(=O)=O)C(=O)N[C@@](C)(CC(=O)O)C(=O)N[C@H](C(N)=O)[C@@H](C)O)C(C)C [compound 71] (H-H[Aib]QGTFTSDYSKYLDARAAQK([AEEA-AEEA-γGlu-C18 diacid])FVQWL[Met(O2)][αMeD]T-NH2)
3 | 9.07 | 0.6 | 8.86 | CC(C)C[C@H](NC(=O)[C@H](Cc1ccc(O)cc1)NC(=O)[C@H](CCCCN)NC(=O)[C@H](CO)NC(=O)[C@H](Cc1ccc(O)cc1)NC(=O)[C@H](CC(=O)O)NC(=O)[C@H](CO)NC(=O)[C@@H](NC(=O)[C@H](Cc1ccccc1)NC(=O)[C@@H](NC(=O)CNC(=O)[C@H](CCC(N)=O)NC(=O)C(C)(C)NC(=O)[C@@H](N)Cc1c[nH]cn1)[C@@H](C)O)[C@@H](C)O)C(=O)N[C@@H](CC(=O)O)C(=O)N[C@@H](C)C(=O)N[C@@H](CCCNC(=N)N)C(=O)N[C@@H](C)C(=O)N[C@@H](C)C(=O)N[C@@H](CCCCNC(=O)COCCOCCNC(=O)COCCOCCNC(=O)CC[C@H](NC(=O)CCCCCCCCCCCCCCCCC(=O)O)C(=O)O)C(=O)N[C@@H](CC(=O)O)C(=O)N[C@@H](Cc1ccccc1)C(=O)N[C@H](C(=O)N[C@@H](CCC(N)=O)C(=O)N[C@@H](Cc1c[nH]c2ccccc12)C(=O)N[C@@H](CC(C)C)C(=O)N[C@@H](CCS(C)(=O)=O)C(=O)N[C@@](C)(CC(=O)O)C(=O)N[C@H](C(N)=O)[C@@H](C)O)C(C)C [compound 74] (H-H[Aib]QGTFTSDYSKYLDARAAK([AEEA-AEEA-γGlu-C18 diacid])DFVQWL[Met(O2)][αMeD]T-NH2)
